From patent US12495798B2, “Nicotinamide compound and herbicidal composition comprising compound” (KOREA RESEARCH INSTITUTE OF CHEMICAL TECHNOLOGY, priority 2019, dated 2025)

Experiments:
Assay type in all cases: in vivo
[1] = test system: sorghum; experiment: Herbicidal activity test against upland field weeds (foliar treatment test); parameters: key to Foliar treatment herbicidal activity, Sorghum: 0 (no control); 100 (complete control); details: 50 g ai/ha, scale 0-100; for plant injury at 50 g/ha: Sorghum
In short: (§1)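 Weeds were raised from seed or rootstocks in horticultural soil in a greenhouse (30±5° C., 14/10 h light/dark), then foliage was hand-sprayed with compound at 50 or 75 g a.i./ha in 50% acetone with 0.1% Tween-20. Control was scored visually 0–100 against untreated plants after 14 days, or 21 if needed.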

[2] = test system: barnyard grass; experiment: as above; parameters: key to Foliar treatment herbicidal activity, barnyard grass: 0 (no control); 100 (complete control); details: 50 g ai/ha, scale 0-100; for pest or weed control at 50 g/ha: Echinochloa crus-galli
In short: as §1

[3] = test system: quack grass; experiment: as above; parameters: key to Foliar treatment herbicidal activity, quack grass: 0 (no control); 100 (complete control); details: 50 g ai/ha, scale 0-100
In short: as §1

[4] = test system: crabgrass; experiment: as above; parameters: key to Foliar treatment herbicidal activity, Crabgrass: 0 (no control); 100 (complete control); details: 50 g ai/ha, scale 0-100; for pest or weed control at 50 g/ha: Digitaria sanguinalis
In short: as §1

[5] = test system: fall panicum; experiment: as above; details: 50 g ai/ha, scale 0-100; for pest or weed control at 50 g/ha: Panicum dichotomiflorum
In short: as §1

[6] = test system: indian jointvetch; experiment: as above; parameters: key to Foliar treatment herbicidal activity, Indian jointvetch: 0 (no control); 100 (complete control); details: 50 g ai/ha, scale 0-100
In short: as §1

[7] = test system: velvetleaf; experiment: as above; parameters: key to Foliar treatment herbicidal activity, velvet leaf: 0 (no control); 100 (complete control); details: 50 g ai/ha; for pest or weed control at 50 g/ha: Abutilon theophrasti, scale 0-100, read-out: Foliar treatment herbicidal activity, velvet leaf; for Foliar treatment herbicidal activity, velvet leaf: scale 0-100
In short: as §1

[8] = test system: cocklebur; experiment: as above; parameters: key to Foliar treatment herbicidal activity, Cocklebur: 0 (no control); 100 (complete control); details: 50 g ai/ha, scale 0-100; for pest or weed control at 50 g/ha: Xanthium strumarium
In short: as §1

[9] = test system: bindweed; experiment: as above; parameters: key to Foliar treatment herbicidal activity, Bindweed: 0 (no control); 100 (complete control); details: 50 g ai/ha, scale 0-100
In short: as §1

[10] = test system: sorghum; experiment: Herbicidal activity test against upland field weeds (soil treatment test); parameters: key to Soil treatment herbicidal activity, Sorghum: 0 (no control); 100 (complete control); details: 50 g ai/ha, scale 0 (no control) to 100 (complete control); for plant injury at 50 g/ha: Sorghum
In short: (§2)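 Pre-emergence test: seeds or rootstocks were sown in fertilized sandy loam, and the next day the soil surface was sprayed with compound at 50 or 75 g a.i./ha in 50% acetone/0.1% Tween-20. Plants were grown in a greenhouse (30±5 °C, 14/10 h light/dark), then visually scored 0–100 against untreated at 14 d (21 d if needed).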

[11] = test system: barnyard grass; experiment: as above; parameters: key to Soil treatment herbicidal activity, barnyard grass: 0 (no control); 100 (complete control); details: 50 g ai/ha, scale 0 (no control) to 100 (complete control); for pest or weed control at 50 g/ha: Echinochloa crus-galli
In short: as §2

[12] = test system: crabgrass; experiment: as above; parameters: key to Soil treatment herbicidal activity, Crabgrass: 0 (no control); 100 (complete control); details: 50 g ai/ha, scale 0 (no control) to 100 (complete control); for pest or weed control at 50 g/ha: Digitaria sanguinalis
In short: as §2

[13] = test system: fall panicum; experiment: as above; parameters: key to Soil treatment herbicidal activity, Fall panicum: 0 (no control); 100 (complete control); details: 50 g ai/ha, scale 0 (no control) to 100 (complete control); for pest or weed control at 50 g/ha: Panicum dichotomiflorum
In short: as §2

[14] = test system: indian jointvetch; experiment: as above; parameters: key to Soil treatment herbicidal activity, Indian jointvetch: 0 (no control); 100 (complete control); details: 50 g ai/ha, scale 0 (no control) to 100 (complete control)
In short: as §2

[15] = test system: velvetleaf; experiment: as above; parameters: key to Soil treatment herbicidal activity, velvet leaf: 0 (no control); 100 (complete control); details: 50 g ai/ha, scale 0 (no control) to 100 (complete control)
In short: as §2

[16] = test system: cocklebur; experiment: as above; parameters: key to Soil treatment herbicidal activity, Cocklebur: 0 (no control); 100 (complete control); details: 50 g ai/ha, scale 0 (no control) to 100 (complete control)
In short: as §2

[17] = test system: bindweed; experiment: as above; parameters: key to Soil treatment herbicidal activity, Bindweed: 0 (no control); 100 (complete control); details: 50 g ai/ha, scale 0 (no control) to 100 (complete control)
In short: as §2

Row | SMILES | plant injury at 50 g/ha [1] | pest or weed control at 50 g/ha [2] | Foliar treatment herbicidal activity, quack grass [3] | pest or weed control at 50 g/ha [4] | pest or weed control at 50 g/ha [5] | pest or weed control at 50 g/ha [6] | pest or weed control at 50 g/ha [7] | pest or weed control at 50 g/ha [8] | pest or weed control at 50 g/ha [9] | plant injury at 50 g/ha [10] | Soil treatment herbicidal activity, barnyard grass [11] | Soil treatment herbicidal activity, Crabgrass [12] | Soil treatment herbicidal activity, Indian jointvetch [14] | Soil treatment herbicidal activity, velvet leaf [15] | Soil treatment herbicidal activity, Cocklebur [16] | Foliar treatment herbicidal activity, velvet leaf [7] | Soil treatment herbicidal activity, Sorghum [10] | pest or weed control at 50 g/ha [13] | Soil treatment herbicidal activity, Bindweed [17] | Foliar treatment herbicidal activity, Cocklebur [8] | also measured
1 | Cn1nnc(COCc2nc(C(F)(F)F)ccc2C(=S)Nc2nnnn2C)n1 [Compound No. 2-106, N-(1-methyl-1H-tetrazol-5-yl)-2-(((2-methyl-2H-tetrazol-5-yl)methoxy)methyl)-6-(trifluoromethyl)pyridin-3-carbothioamide] | 70% | 80% | 0 | 70% | 70% | 80% | 95% | 95% | 40% | 70% | 100 | 100 | 100 | 100 | 100 |  |  |  |  |  | Soil treatment herbicidal activity, Fall panicum [13]: 100; pest or weed control at 50 g/ha [17]: 98%
2 | Cn1nnnc1COCc1nc(C(F)(F)F)ccc1C(=O)Nc1nnnn1C [Compound No. 1-61, N-(1-methyl-1H-tetrazol-5-yl)-2-(((1-methyl-1H-tetrazol-5-yl)methoxy)methyl)-6-(trifluoromethyl)nicotinamide] | 20% | 95% | 0 | 95% | 70% |  |  | 98% | 70% |  |  |  | 100 |  | 0 | 100 | 0 | 95% | 0 |  | Foliar treatment herbicidal activity, Indian jointvetch [6]: 100; pest or weed control at 50 g/ha [11]: 20%; pest or weed control at 50 g/ha [12]: 40%; pest or weed control at 50 g/ha ([15]; Abutilon theophrasti, read-out: Soil treatment herbicidal activity, velvet leaf): 90%
3 | Cn1nnnc1COc1nc(C(F)(F)F)ccc1C(=O)Nc1nnnn1C [Compound No. 1-1, N-(1-methyl-1H-tetrazol-5-yl)-2-((1-methyl-1H-tetrazol-5-yl)methoxy)-6-(trifluoromethyl)nicotinamide] | 70% | 98% | 0 |  | 95% | 30% | 98% |  |  |  |  |  | 0 | 100 | 0 |  | 0 | 98% | 0 | 100 | Foliar treatment herbicidal activity, Crabgrass [4]: 100; pest or weed control at 50 g/ha [11]: 95%; pest or weed control at 50 g/ha [12]: 98%
4 | Cn1nnc(COCc2nc(C(F)(F)F)ccc2C(=O)N(C(=O)c2ccccc2)c2nnnn2C)n1 [Compound No. 2-68, N-benzoyl-N-(1-methyl-1H-tetrazol-5-yl)-2-(((2-methyl-2H-tetrazol-5-yl)methoxy)methyl)-6-(trifluoromethyl)nicotinamide] | 80% |  | 0 | 98% | 98% | 98% |  |  |  | 40% |  | 100 | 100 | 100 | 0 | 100 |  | 90% | 0 | 100 | Foliar treatment herbicidal activity, barnyard grass [2]: 100; Foliar treatment herbicidal activity, Bindweed [9]: 100; pest or weed control at 50 g/ha [11]: 98%
5 | Cn1nnnc1NC(=O)c1ccc(C(F)(F)F)nc1OCc1nnnn1C(F)F [Compound No. 1-26, 2-((1-(difluoromethyl)-1H-tetrazol-5-yl)methoxy)-N-(1-methyl-1H-tetrazol-5-yl)-6-(trifluoromethyl)nicotinamide] | 70% | 95% | 0 | 98% | 98% | 70% | 50% | 70% | 60% | 30% | 100 |  |  | 100 | 0 |  |  | 60% | 0 |  | pest or weed control at 50 g/ha [14]: 70%
6 | Cn1cnc(COCc2nc(C(F)F)ccc2C(=O)Nc2nnnn2C)n1 [Compound No. 2-85] |  |  |  |  |  |  |  |  |  |  | 0 | 0 | 55 | 20 | 25 | 100 | 0 |  | 35 | 97 | Foliar treatment herbicidal activity, Sorghum [1]: 5; Foliar treatment herbicidal activity, barnyard grass [2]: 99; Foliar treatment herbicidal activity, Crabgrass [4]: 60; Foliar treatment herbicidal activity, Fall panicum [5]: 84; Foliar treatment herbicidal activity, Indian jointvetch [6]: 97; Foliar treatment herbicidal activity, Bindweed [9]: 99; Soil treatment herbicidal activity, Fall panicum [13]: 20
7 | COC(=O)OC(C)N(C(=O)c1ccc(C(F)(F)F)nc1COCc1nnn(C)n1)c1nnnn1C (stereo not drawn) [Compound No. 4-4, methyl(1-(N-(1-methyl-1H-tetrazol-5-yl)-2-(((2-methyl-2H-tetrazol-5-yl)methoxy)methyl)-6-(trifluoromethyl)nicotinamido)ethyl)carbonate] |  |  | 0 |  |  |  |  |  |  |  | 0 | 0 |  | 100 | 0 | 100 | 0 |  | 0 | 98 | Foliar treatment herbicidal activity, Sorghum [1]: 100; Foliar treatment herbicidal activity, barnyard grass [2]: 100; Foliar treatment herbicidal activity, Crabgrass [4]: 98; Foliar treatment herbicidal activity, Fall panicum [5]: 98; Foliar treatment herbicidal activity, Indian jointvetch [6]: 100; Foliar treatment herbicidal activity, Bindweed [9]: 100
